This passage reports half-life results from PubChem BioAssay AID1508591.

For this series the following is noted: rat; liver microsomes; pH 7.4; 15.0 min; 1.0 µM. (Microsomes from liver hold many membrane-bound enzymes, among them those of drug oxidation.)

By half-life is commonly meant how long it takes for the measured level to halve. Lower therefore signals fast loss. The compound `COc1ccc(NC(=O)C23CC4CC(CC(C4)C2)C3)cc1[S+](=O)([O-])Nc1ccc(Br)cc1` showed a half-life of 5 min. To `CC(C)c1ccccc1-c1ncc(F)c(NCC2CCN(c3cccnc3)CC2)n1` belongs 3 min. To `C[C@@H]1[C@@H](CC(C[C@H]2O[C@@H]3O[C@]4(C)CC[C@@H]5[C@H](C)CC[C@@H]([C@H]2C)[C@@]35OO4)C(=O)NCc2ccc(F)cc2)O[C@@H]2O[C@]3(C)CC[C@H]4[C@H](C)CC[C@@H]1[C@@]24OO3` (stereo partly specified) belongs 2.4 min; to `CCOc1ccc(S(=O)(=O)NCc2cccnc2)cc1NC(=O)c1ccccc1F`, 2.82 min. `Fc1ccc(Nc2nc(-c3ccncc3)nc3ccccc23)cc1F` returned a half-life of 9.82 min.

Regarding `Oc1c(CN2CCN(c3ccccn3)CC2)cc(Cl)c2cccnc12`, the half-life is 3.23 min. Compared with the last compound, the half-life is about 3-fold lower. In turn, `COc1ccccc1OCCNCC(O)COc1cccc2[nH]c3ccccc3c12` (stereo unspecified) returned a half-life of 1.52 min. This half-life is about 2.1-fold lower than that of the compound before.

The compound `O=c1cc(CSc2ccc(Cl)cc2)nc(-c2ccccn2)[nH]1` registered a half-life of 1.52 min. To `Oc1ccc(-c2nc(C3CC3)nc3c2CCN(CC2CCCCC2)CC3)cc1` belongs 5.28 min.

`Cc1ccc(S(=O)(=O)Nc2ccc(OC(F)(F)F)cc2C(=O)Nc2nc(-c3ccccc3)cs2)cc1`: the half-life came to 24 min. To `Cc1ccc(S(=O)(=O)Nc2ccccc2C(=O)Nc2cccc(-c3ccccc3)c2)cc1` belongs 3.5 min. For the compound `Cc1ccc(S(=O)(=O)Nc2cnccc2C(=O)Nc2nc(-c3ccc(Cl)cc3)cs2)cc1`, the half-life is greater than 30 min. To `Cc1ccc(-c2csc(N3CCC(C(N)=O)CC3)n2)cc1` belongs 2.22 min; to `Cn1cnc(S(=O)(=O)Nc2cnccc2C(=O)Nc2nc(-c3ccccc3)cs2)c1`, greater than 30 min. To `COc1ccc(-c2cc(-c3cccc(NC(C)=O)c3)cn3cncc23)cn1` belongs 15.7 min; to `c1ccc2c(Nc3ccc4nc[nH]c4c3)nc(-c3ccncc3)nc2c1`, 16 min. To `CCCCCn1c(=O)[nH]c2cc(C(=O)NCCCN3CCCCC3)ccc2c1=O` belongs greater than 30 min; to `Cc1ccc(-n2ncc(C(=O)NCCN3CCC(Cc4ccccc4)CC3)c2C2CCN(C(=O)OC(C)(C)C)CC2)cc1`, 9.29 min.

As for `C=Cc1ccc(C(=O)N2CCCC(CCC(=O)N3CCN(c4ccccn4)CC3)C2)cc1` (stereo unspecified), the half-life was 1.5 min. To `Cc1ccc(NC(=O)c2cc(-c3ccc(C)o3)nc3ccccc23)nc1` belongs 8.3 min.

The compound `CC[C@H](NC(=O)[C@H](C)NC)C(=O)N1C[C@@H](O)C[C@H]1Cc1c(-c2[nH]c3cc(F)ccc3c2C[C@H]2C[C@H](O)CN2C(=O)[C@H](CC)NC(=O)[C@H](C)NC)[nH]c2cc(F)ccc12` returned a half-life greater than 30 min. `COC(=O)[C@]12CCC(C)(C)C[C@@H]1[C@@H]1C(=O)C=C3[C@@]4(C)C=C(C#N)C(=O)C(C)(C)[C@@H]4CC[C@@]3(C)[C@]1(C)CC2` displayed a half-life of 5.97 min. To `O=C(O)c1cn(C2CC2)c2cc(N3C[C@@H]4C[C@H]3CN4)c(F)cc2c1=O` belongs greater than 30 min; to `Cc1ccc2nc(NC3=NC(c4[nH]ncc4Cl)C4=C(CCCC4=O)N3)oc2c1` (stereo unspecified), 15.8 min.

Consider `O=S(=O)(Nc1ccccc1)c1ccc(NCc2cccc(Cl)c2O)cc1`, for which the half-life came out at 2.2 min.

With `CC(=O)Nc1ncc(S(=O)(=O)Nc2cnccc2C(=O)Nc2nc(-c3ccccc3)cs2)s1`, the half-life is greater than 30 min. To `O=C(c1ccccc1)N1CCC(c2nn(-c3ccc(F)cc3)c(=O)[nH]2)CC1` belongs greater than 30 min. To `C=C1[C@@H](C)C2[C@H](Cc3ccccc3)NC(=O)[C@@]23C(/C=C/C[C@H](C)C[C@@](C)(O)/C=C/[C@@H]3OC(C)=O)[C@@H]1O` (stereo partly specified) belongs 5.2 min. To `O=C1Nc2cc(Cl)ccc2/C1=C\c1cc(Cl)c(O)c(Cl)c1` belongs greater than 30 min; to `COc1cc(=O)n2c(c1C(=O)N(C)Cc1cscn1)CCN(C(=O)c1ccc(C)cc1C)CC2`, greater than 30 min. The compound `COc1ccc(-c2nc(N3CCOCC3)c3sc(CN(C)c4ncc(C(=O)NO)cn4)cc3n2)cn1` came in with a half-life greater than 30 min. To `COc1ccc(NC(=O)c2c(C)cccc2C)cc1S(=O)(=O)Nc1ccc(Br)cc1` belongs 5.2 min; to `NC(=O)c1ccc(-c2nc3c([nH]2)CN(C(=O)CN2CCOCC2)CC3)cc1`, greater than 30 min; to `CNC1CCC(N(Cc2ccc(OC)c(-c3ccc(C#N)cc3)c2)C(=O)c2sc3ccccc3c2Cl)CC1` (stereo unspecified), greater than 30 min.

As for `Fc1ccc(Nc2nc(-c3ccncc3)cc3ccccc23)cc1F`, the half-life is 24 min. To `Cc1ccc(C(=O)N2CCc3sc(C(=O)NC(C)c4ccccc4)cc3C2)cc1` (stereo unspecified) belongs 4.79 min. To `Cc1ccc(NS(=O)(=O)c2ccc3[nH]c4c(c3c2)CCCCCC4)cc1` belongs 2.08 min.

In the case of `COc1ccc(S(=O)(=O)N2CCCCCC2)cc1NC(=O)Cc1n[nH]c(=O)c2ccccc12`, the half-life is 2.9 min. To `COc1ccc(NC(C)=O)cc1S(=O)(=O)Nc1ccc(Br)cc1` belongs greater than 30 min. To `Cc1cc(C)cc(NS(=O)(=O)c2ccc3[nH]cc(C(=O)NCc4ccco4)c(=O)c3c2)c1` belongs 1.84 min; to `O=C(Cc1n[nH]c(=O)c2ccccc12)NC1CCCc2c1[nH]c1c(Cl)cccc21` (stereo unspecified), 8.05 min. `Fc1cnc(-c2ccccc2C(F)F)nc1NCc1ccc(-c2ccn[nH]2)cc1`: the half-life was 10 min. To `O=c1c(-c2ccc(O)cc2)coc2cc(O)ccc12` belongs greater than 30 min. To `Nc1ncnc2c1c(-c1cnc3[nH]ccc3c1)nn2C1CCCC1` belongs 3.09 min; to `Cc1ccc(N2CCC(CNc3nc(-c4ccccc4C(C)C)ncc3F)CC2)cn1`, 2.4 min; to `CN(Cc1ccccc1)C(=O)C1CCN(Cc2cccc3ccccc23)CC1`, 2.4 min. Turning to `Cc1nn(CCc2nc(-c3ccc4ccccc4c3)cs2)c2[nH]c(=O)cc(C(F)(F)F)c12`, the half-life is 6.4 min. `CCOC(=O)C1=C(C)NC(=O)CC1C(=O)Nc1cc(Cl)cc(Cl)c1` (stereo unspecified) had a half-life of 6.1 min. The half-life values of the last two compounds are within 1.5-fold of each other.

For the compound `O=C(Nc1nc(-c2ccccc2)cs1)c1ccncc1NS(=O)(=O)c1ccc(N2CCCC2=O)cc1`, the half-life is 1.6 min. To `CCc1cccc(NC(=O)c2c(C)oc3nc(C)nc(N4CCCC4)c23)c1` belongs 1.41 min. Regarding `COc1ccccc1-c1nc(NCc2cnc(C)cn2)c2ccccc2n1`, the half-life was found to be 10 min.

Turning to `O=C(c1nc(-c2cccnc2)c2ccccn12)N1CCN(c2ncccn2)CC1`, the half-life came to 8.43 min.

`CCCN1CNc2c(c(=O)[nH]c(=S)n2CCc2cccc(Cl)c2Cl)C1` registered a half-life of 2.47 min.

`COc1ccc(NC(=O)c2[nH]c(C)c(C(C)=O)c2C)cc1S(=O)(=O)N1CCCCC1` gave a half-life of 6 min.

As to `Fc1cc(Nc2nc(-c3ccncc3)nc3ccccc23)ccc1-c1cn[nH]c1`, the half-life was 19 min. To `Fc1ccc(CNc2cc3c(cn2)CN(Cc2ccncc2)CCN3)cc1` belongs 15.9 min; to `NC(=O)C1CCN(c2nc(-c3cccc(Cl)c3)cs2)CC1`, 1.88 min.

The compound `CCOc1ccc(-c2csc(N3CCC(C(N)=O)CC3)n2)cc1` gave a half-life of 9.24 min. Compared with the last compound, the half-life is about 4.9-fold higher. To `CCC(=O)NC(c1cccs1)c1cc([N+](=O)[O-])c2cccnc2c1O` (stereo unspecified) belongs greater than 30 min; to `Fc1ccc(Cl)cc1-c1nc(Nc2ccncc2)c2nccnc2n1`, 15.9 min; to `Cc1cccc(NC(=S)N2CCN(c3cccc(C(F)(F)F)c3)CC2)c1`, 6 min. To `Cc1cnc(-c2ccccc2C(C)C)nc1NCC1CCN(C2COC2)CC1` belongs 7.7 min. To `CCc1ccc(CNc2ccc3c(c2)ncn3C(C)(C)C)cc1` belongs 9.8 min. On to `NC(=O)C1CCN(c2nc(-c3ccc4ccccc4c3)cs2)CC1`, for which the half-life is 2.62 min. To `CCOc1ccc(CCNC(=O)c2cc3sccc3n2Cc2ccccc2)cc1OCC` belongs 1.7 min; to `COC(=O)[C@@]12OC[C@]34[C@H]([C@@H](O)[C@@H]1O)[C@@]1(C)CC(=O)C(O)=C(C)[C@@H]1C[C@H]3OC(=O)[C@H](OC(=O)/C=C(\C)C(C)C)[C@@H]24`, 10.1 min.

Compound `Fc1ccc(-c2ccc(Nc3nc(-c4ccncc4)nc4ccccc34)cc2F)c(F)c1` displayed a half-life of 23 min. To `FC(F)(F)c1ccccc1-c1nc(NCc2ccc(Cl)cc2)c2ccccc2n1` belongs greater than 30 min.

Regarding `Cc1ccc(-n2c(C)cc(-c3nnc4n3CCCCC4)c2C)cc1`, the half-life was found to be 1.62 min. To `Cc1ccccc1C(=O)N1CCc2cc(-c3nc(NC(=O)Cc4ccc5c(c4)OCO5)sc3C)ccc21` belongs 15.5 min; to `NC(=O)C1CCN(c2nc(-c3ccc([N+](=O)[O-])cc3)cs2)CC1`, 5.53 min; to `CN(C)[C@@H]1CCN(c2cccc(Nc3nn4c(=O)c5ccccc5nc4s3)c2)C1`, greater than 30 min. To `O=[N+]([O-])c1cccnc1N/N=C/c1ccccc1O` belongs 7.7 min; to `NC(=O)C1CCN(c2nccc(-c3ccc(Br)cc3)n2)CC1`, 19.3 min; to `CC(C)N(CCCNC(=O)Nc1ccc(C(C)(C)C)cc1)C[C@H]1O[C@@H](n2ccc3c(N)ncnc32)[C@H](O)[C@@H]1O`, 2.42 min. To `N#Cc1cccc(Nc2ncc(-c3cccc4ccccc34)o2)c1` belongs greater than 30 min.

In the case of `O=[S+]([O-])(Nc1ccccc1)c1ccc(NCc2cccc(Cl)c2F)cc1`, the half-life was 4.5 min. To `Cc1cnc(-c2ccccc2C(F)F)nc1NCc1ccc(-c2cccnc2)cc1` belongs 8.1 min. To `CCOC(=O)c1c(NC(=O)CN2CCCCC2)sc2c1CCN(C(=O)OCC)C2` belongs 5.2 min; to `O=C(NC1CCCCC1)N1Cc2[nH]cnc2C[C@H]1c1nc(-c2cccc([N+](=O)[O-])c2)no1`, 10.3 min; to `CCCCCCOc1ccc(OC(=O)c2ccncc2)cc1`, 2.32 min. To `FC1(F)CCN(c2nc(-c3ccncc3)nc3ccccc23)CC1` belongs 9.4 min; to `Cc1ccccc1C(=O)N1CCc2cc(-c3nc(NC(=O)Cc4ccccc4)sc3C)ccc21`, 24 min; to `COc1ccc(OC)c(-c2cc(C(=O)N3CCN(c4ncccn4)CC3)c3ccccc3n2)c1`, 7.87 min. In turn, `COc1ccccc1CNc1ccc(N2CCCCC2)cc1` displayed a half-life of 2.19 min.

As to `COc1cc2c(cc1OCCCN1CCCC1)N=C(N)C21CCC1`, the half-life is greater than 30 min.
